This is an account of results in paper PMC9844320, “Novel CaLB-like Lipase Found Using ProspectBIO, a Software for Genome-Based Bioprospection” (BioTech, 2023).

Test [1] deals with T1, UhL (Ustilago hordei, UniProt I2G5F8).
T1 construct: gene UHOR_02134; codon-optimized gene in pPICZalphaA (alpha-factor secretion), C-terminal 6xHis, 330 residues expressed, 35 kDa predicted / 36 kDa by Western blot, N-glycosylated; Pichia pastoris X-33 culture supernatant, not purified
T1 sequence (I2G5F8 20-343): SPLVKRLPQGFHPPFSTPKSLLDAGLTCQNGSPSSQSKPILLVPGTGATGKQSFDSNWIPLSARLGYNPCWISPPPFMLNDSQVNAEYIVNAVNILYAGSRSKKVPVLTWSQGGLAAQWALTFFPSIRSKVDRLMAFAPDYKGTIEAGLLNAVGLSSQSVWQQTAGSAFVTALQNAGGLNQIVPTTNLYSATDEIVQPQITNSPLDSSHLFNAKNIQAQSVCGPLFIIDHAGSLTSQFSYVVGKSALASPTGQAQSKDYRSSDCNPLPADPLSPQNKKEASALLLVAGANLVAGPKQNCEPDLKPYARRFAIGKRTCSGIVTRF
Description: hydrolysis halo on tributyrin agar plate of expressing clones (wild-type X-33 as control). The format is cell-based. Particulars: BMMY agar, pH 6.0, 30 °C, 4 days, methanol induction.

Another test concerns the target T2, rLipB (Moesziomyces antarcticus, UniProt P41365).
T2 construct: recombinant CaLB secreted constitutively (PGK promoter) by Pichia pastoris; lyophilized culture supernatant, gift of LaBiM, not purified
T2 sequence (P41365 26-342): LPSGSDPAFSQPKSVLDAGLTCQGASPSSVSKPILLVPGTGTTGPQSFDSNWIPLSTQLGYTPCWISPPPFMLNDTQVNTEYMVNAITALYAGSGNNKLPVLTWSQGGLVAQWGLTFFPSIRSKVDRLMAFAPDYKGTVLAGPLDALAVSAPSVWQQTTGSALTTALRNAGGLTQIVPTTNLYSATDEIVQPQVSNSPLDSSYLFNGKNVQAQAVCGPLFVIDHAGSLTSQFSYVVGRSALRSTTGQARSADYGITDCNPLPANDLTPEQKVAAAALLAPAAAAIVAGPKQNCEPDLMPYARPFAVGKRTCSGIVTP
Description: spectrofluorimetric release of 4-methylumbelliferone by lyophilized culture supernatant. The format is biochemical. As to conditions: pH 7, 0.05 M phosphate, 45 °C; crude lyophilized supernatant.

For test [2], the target named is T1, UhL. Description: spectrofluorimetric release of 4-methylumbelliferone by culture supernatant. Particulars: pH 7, 0.05 M phosphate, 45 °C; crude culture supernatant. The test is classed as biochemical.

Take `CCCC(=O)OCC(COC(=O)CCC)OC(=O)CCC` [tributyrin]: on UhL [1], the “hydrolysis halo on tributyrin agar plate of expressing clones (wild-type X-33 as)” value is recorded as “expressed in Pichia pastoris, showing activity against tributyrin triglyceride”.

Regarding `CCCC(=O)Oc1ccc2c(C)cc(=O)oc2c1` [C4, MUF-butyrate], the relative activity result on rLipB is “rLipB activity was increased, as the ester substrate chain length increased up to C7”.

On to `CCCCCCC(=O)Oc1ccc2c(C)cc(=O)oc2c1` [MUF-7, MUF-heptanoate], for which the relative activity entry on rLipB and on UhL [2] was “Both enzymes showed the highest activity with MUF-heptanoate (MUF-7)” throughout.
